According to ChEMBL document CHEMBL1201862, “PubChem BioAssay data set” (2004):
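These data come from cells grown in 96-well plates and exposed to compound for 48 hours at five concentrations. At the GI50, growth is halved.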 Active and inactive are the calls of the source. Cut-off read from the data, not from the text of the source: active = GI50 up to about 1.1 µM and inactive = higher.

Assays:
Experiment in all cases: growth of human tumour cells (NCI), 48 h
NCI-H522 = system: NCI-H522
HCT-15 = system: HCT-15
MDA-MB-231 = system: MDA-MB-231
SK-MEL-2 = system: SK-MEL-2
TK-10 = system: TK-10
NCI-H226 = system: NCI-H226
COLO 205 = system: COLO 205
SK-OV-3 = system: SK-OV-3
CCRF-CEM = system: CCRF-CEM
M14 = system: M14
MDA-N = system: MDA-N
KM12 = system: KM12
HL-60 = system: HL-60
PC-3 = system: PC-3
A549 = system: A549
NCI/ADR-RES = system: NCI/ADR-RES
HCT-116 = system: HCT-116
CAKI-1 = system: CAKI-1
NCI-H460 = system: NCI-H460
HCC 2998 = system: HCC 2998
NCI-H23 = system: NCI-H23
Malme-3M = system: Malme-3M
SR = system: SR
HOP-62 = system: HOP-62
UACC-62 = system: UACC-62
SF-295 = system: SF-295
UACC-257 = system: UACC-257
K562 = system: K562
IGROV-1 = system: IGROV-1
A498 = system: A498
U-251 = system: U-251
DU-145 = system: DU-145
OVCAR-8 = system: OVCAR-8
SF-268 = system: SF-268
MCF7 = system: MCF7
SK-MEL-5 = system: SK-MEL-5
OVCAR-4 = system: OVCAR-4
HT-29 = system: HT-29
RPMI-8226 = system: RPMI-8226
LOX IMVI = system: LOX IMVI
ACHN = system: ACHN
MDA-MB-435 = system: MDA-MB-435
MOLT-4 = system: MOLT-4
OVCAR-3 = system: OVCAR-3
786-0 = system: 786-0
SK-MEL-28 = system: SK-MEL-28
SF-539 = system: SF-539
EKVX = system: EKVX
SW-620 = system: SW-620
OVCAR-5 = system: OVCAR-5
SN12C = system: SN12C
BT-549 = system: BT-549
UO-31 = system: UO-31
SNB-19 = system: SNB-19

Measured: GI50

CC1CNC(NS(=O)(=O)c2cc(C(=O)Nc3ccccc3)c(Cl)cc2S)=NN1 (centres undefined)
inactive: NCI-H522 23.4 µM | MDA-MB-231 > 100 µM | SK-MEL-2 22.2 µM | TK-10 > 100 µM | NCI-H226 44.7 µM | COLO 205 48.6 µM | SK-OV-3 81.5 µM | CCRF-CEM 32.8 µM | M14 26.4 µM | MDA-N 24.9 µM | KM12 33.3 µM | HL-60 66.2 µM | PC-3 29 µM | A549 33.7 µM | NCI/ADR-RES > 100 µM | HCT-116 30.5 µM | CAKI-1 > 100 µM | NCI-H460 63 µM | HCC 2998 46.1 µM | NCI-H23 44.1 µM | Malme-3M 31.2 µM | SR 41.8 µM | HOP-62 43.9 µM | UACC-62 43.2 µM | SF-295 38.5 µM | UACC-257 > 100 µM | K562 35.2 µM | IGROV-1 6.24 µM | A498 17.7 µM | U-251 39.1 µM | DU-145 > 100 µM | OVCAR-8 30.8 µM | SF-268 26.1 µM | MCF7 36.5 µM | SK-MEL-5 23.2 µM | OVCAR-4 67.3 µM | HT-29 38.8 µM | RPMI-8226 31.4 µM | LOX IMVI 21 µM | ACHN 69 µM | MDA-MB-435 17.7 µM | MOLT-4 49.8 µM | OVCAR-3 41.4 µM | 786-0 92.3 µM | SK-MEL-28 45.3 µM | SF-539 38.4 µM | EKVX > 100 µM | SW-620 40.6 µM | OVCAR-5 27.2 µM | SN12C > 100 µM | BT-549 97.3 µM | UO-31 77.8 µM | SNB-19 57 µM
33.8 µM: HCT-15
